Assay results as given in US4153710A, “N-(4-[2-(pyrazole-1-carbonamide)-ethyl]-benzenesulphonyl)-urea” (Starogardzkie Zaklady Farmaceutyczne POLFA, priority 1976, dated 1979).

Tests used:
[1] = Oral toxicity in mice (LD50); conditions: mouse, in vivo
[2] = Acute, subacute and protracted toxicity (6 months); assay type: in vivo
[3] = tested on: oxygen consumption in mitochondria of a rat's liver; assay: Oxygen consumption of rat liver mitochondria; assay type: biochemical
Method: 2-oxoglutaran 2 mM, ADP 1 mM, mitochondria | protein 4 mg/m. […] The

[4] = tested on: calcium transmission in mitochondria of a rat's liver; assay: Calcium transmission to rat liver mitochondria; assay type: biochemical; conditions: for % of inhibition, calcium transmission: medium with CaCl 300 nmoles/ml
Method: Sucrose 170mM, KCl 10 mM, MgCl2 […], K2 HPO 5 mM, EGTA 0.01 mM
2-oxoglutaran 2 mM, ADP 1 mM, mitochondria
protein 4 mg/m. Temperature 25° C.
of hydrogen ion consumption. The calcium transmission to mitochondria was
studied with two methods; in a continuous way with a Radiometer calcium
electrode type F2112 or with an isotopic method.
*The medium contained Ca Cl 300 nmoles/ml.

In the case of `Cc1ccn(C(=O)NCCc2ccc(S(=O)(=O)NC(=O)NC3CCCCC3)cc2)n1` [SPC-5002, N-{4-[2-(3-methylpyrazole-1-carbonamide)-ethyl]-benzenesulphonyl}-N'-cyclohexylourea], the LD50 [1] is reported as greater than 20000 mg/kg, the “changes in haematopoietic system” value ([2]; 6 months administration) is reported as “No changes in the haematopoietic system” and the “effect on liver and kidneys” value ([2]; 6 months administration) is reported as “did not handicap the activities of the liver and kidneys”. For the same compound, the “general number of white blood corpuscles” value ([2]; 6 months administration) was “did not influence the general number of white blood corpuscles”, the toxicity ([2]; acute, subacute and protracted toxicity) was “extremely low toxicity” and the “body weight, consumption of food and water” value ([2]; compared with control group) was “did not reveal any differences between the control group and the group under examination”. The effect on oxidation ([3]; 0.05 nM) was “no effect”, the “% of inhibition, oxygen consumption” value ([3]; concentration 0.05 n M) was 0% and the “% of inhibition, oxygen consumption” value ([3]; concentration 0.1 n M) was 12%. The “% of inhibition, oxygen consumption” value ([3]; concentration 0.3 n M) was 21%, the “% of inhibition, oxygen consumption” value ([3]; concentration 0.5 n M) was 34% and the “% of inhibition, oxygen consumption” value ([3]; concentration 0.7 n M) was 47%. The “% of inhibition, oxygen consumption” value ([3]; concentration 1.0 n M) was 69%, the Ki ([3]; rat liver mitochondria) was 750 µM and the “% of inhibition, calcium transmission” value ([4]; concentration 0.05 n M) was 8%. The “Calcium transmission / Oxide consumption (ratio of inhibition)” value ([4]; concentration 0.1 n M) was 1.75, the “% of inhibition, calcium transmission” value ([4]; concentration 0.1 n M) was 21% and the “Calcium transmission / Oxide consumption (ratio of inhibition)” value ([4]; concentration 0.3 n M) was 1.42. The “% of inhibition, calcium transmission” value ([4]; concentration 0.3 n M) was 30%, the “Calcium transmission / Oxide consumption (ratio of inhibition)” value ([4]; concentration 0.5 n M) was 1.55 and the “% of inhibition, calcium transmission” value ([4]; concentration 0.5 n M) was 53%. The “Calcium transmission / Oxide consumption (ratio of inhibition)” value ([4]; concentration 1.0 n M) was 0.99, the “% of inhibition, calcium transmission” value ([4]; concentration 1.0 n M) was 68% and the Ki ([4]; rat liver mitochondria) was 450 µM. The “preference of inhibition: calcium transmission versus oxidizing processes” value ([4]; rat liver mitochondria) was “preferential inhibiting of calcium transmission” and the “Ki ratio SPC-5002 / Glibenclamide, calcium transmission” value ([4]; ratio of inhibitor constants) was 10.
